# Laboratory results taken from patent US12084472B2 (Ardelyx, Inc., priority 2015, dated 2024).
# Target: T1, human TGR5 (Homo sapiens, UniProt Q8TDU6)
# T1 construct: expressed in transfected cells; host or cells: HEK293
# T1 sequence (Q8TDU6 1-330): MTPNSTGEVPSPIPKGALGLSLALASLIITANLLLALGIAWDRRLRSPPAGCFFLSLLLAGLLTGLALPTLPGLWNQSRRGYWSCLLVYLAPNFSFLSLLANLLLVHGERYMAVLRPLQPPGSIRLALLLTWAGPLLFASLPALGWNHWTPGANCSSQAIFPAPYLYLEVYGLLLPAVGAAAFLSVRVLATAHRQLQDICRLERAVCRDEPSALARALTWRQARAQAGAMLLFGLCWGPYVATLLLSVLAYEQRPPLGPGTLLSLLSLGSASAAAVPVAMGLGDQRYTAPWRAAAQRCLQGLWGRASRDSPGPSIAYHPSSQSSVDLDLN
# Experiment: Cell-based TGR5 assay (cAMP generation, HTRF)
# Settings: HEK293 cells stably transfected with human TGR5; cAMP by HTRF; 30 minutes at 37° C.; read-out: pEC50 Human TGR5 (converted)
# Summary of the method: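 First, compounds in 3-fold serial dilution were placed in HBSS with 10 mM HEPES pH 7.4 and 0.5 mM IBMX. Next, human TGR5-expressing HEK293 cells were added and incubated 30 min at 37° C. Finally, cAMP was detected by HTRF and pEC50 derived by logistic fitting.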
row,EC50,Compound
1,< 100 nM,"CC(OCc1cc(S(=O)(=O)N(CCCCNC(=O)NC[C@H](O)[C@@H](O)[C@H](O)[C@H](O)CO)C(C)C)ccc1Cl)c1cnccc1-c1ccccc1OC1CC1 (stereo partly drawn) [Compound I-753, 4-chloro-3-((1-(4-(2-cyclopropoxyphenyl)pyridin-3-yl)ethoxy)methyl)-N-isopropyl-N-(4-(3-((2S,3R,4R,5R)-2,3,4,5,6-pentahydroxyhexyl)ureido)butyl)benzenesulfonamide]"
2,< 100 nM,"CC(C)N(CCCCNC(=O)N[C@@H](CO)[C@@H](O)[C@H](O)[C@H](O)CO)S(=O)(=O)c1ccc(Cl)c(CNC(C)(C)c2cnccc2-c2ccccc2OC2CC2)c1 [Compound I-754, 4-chloro-3-(((2-(4-(2-cyclopropoxyphenyl)pyridin-3-yl)propan-2-yl)amino)methyl)-N-isopropyl-N-(4-(3-((2S,3R,4S,5R)-1,3,4,5,6-pentahydroxyhexan-2-yl)ureido)butyl) benzenesulfonamide]"
3,126 to 1000 nM,"O=C(NCCCCOc1ccc(Cl)c(COC2(c3cnccc3-c3ccccc3OC3CC3)CC2)c1)NC[C@H](O)[C@@H](O)[C@H](O)[C@H](O)CO [Compound I-755, 1-(4-(4-chloro-3-((1-(4-(2-cyclopropoxyphenyl)pyridin-3-yl)cyclopropoxy)methyl)phenoxy)butyl)-3-((2S,3R,4R,5R)-2,3,4,5,6-pentahydroxyhexyl)urea]"
4,126 to 1000 nM,"O=C(N[C@@H](CO)[C@@H](O)[C@H](O)[C@H](O)CO)c1cccc(OCc2ccc(Cl)c(COC3(c4cnccc4-c4ccccc4OC4CC4)CC3)c2)c1 [Compound I-756, 3-((4-chloro-3-((1-(4-(2-cyclopropoxyphenyl)pyridin-3-yl)cyclopropoxy)methyl)benzyl)oxy)-N-((2S,3R,4S,5R)-1,3,4,5,6-pentahydroxyhexan-2-yl)benzamide]"
5,126 to 1000 nM,"Cn1c(C(=O)NC[C@H](O)[C@@H](O)[C@H](O)[C@H](O)CO)cnc1SCc1ccc(Cl)c(COC2(c3cnccc3-c3ccccc3OC3CC3)CC2)c1 [Compound I-758, 2-((4-chloro-3-((1-(4-(2-cyclopropoxyphenyl)pyridin-3-yl)cyclopropoxy)methyl)benzyl)thio)-1-methyl-N-((2S,3R,4R,5R)-2,3,4,5,6-pentahydroxyhexyl)-1H-imidazole-5-carboxamide]"
6,126 to 1000 nM,"Cn1c(C(=O)N[C@@H](CO)[C@@H](O)[C@H](O)[C@H](O)CO)cnc1SCc1ccc(Cl)c(COC2(c3cnccc3-c3ccccc3OC3CC3)CC2)c1 [Compound I-759, 2-((4-chloro-3-((1-(4-(2-cyclopropoxyphenyl)pyridin-3-yl)cyclopropoxy)methyl)benzyl)thio)-1-methyl-N-((2S,3R,4S,5R)-1,3,4,5,6-pentahydroxyhexan-2-yl)-1H-imidazole-5-carboxamide]"
7,126 to 1000 nM,"O=C(NCCCCCOc1ccc(Cl)c(COC2(c3cnccc3-c3ccccc3OC3CC3)CC2)c1)N[C@@H](CO)[C@@H](O)[C@H](O)[C@H](O)CO [Compound I-760, 1-(5-(4-chloro-3-((1-(4-(2-cyclopropoxyphenyl)pyridin-3-yl)cyclopropoxy)methyl)phenoxy)pentyl)-3-((2S,3R,4S,5R)-1,3,4,5,6-pentahydroxyhexan-2-yl)urea]"
8,< 100 nM,"CC(C)CN(CCCCNC(=O)N[C@@H](CO)[C@@H](O)[C@H](O)[C@H](O)CO)S(=O)(=O)c1ccc(Cl)c(COC2(c3cnccc3-c3ccccc3OC3CC3)CC2)c1 [Compound I-761, 4-chloro-3-((1-(4-(2-cyclopropoxyphenyl)pyridin-3-yl)cyclopropoxy)methyl)-N-isobutyl-N-(4-(3-((2S,3R,4S,5R)-1,3,4,5,6-pentahydroxyhexan-2-yl)ureido)butyl)benzenesulfonamide]"
9,< 100 nM,"CC(C)CN(CCCCNC(=O)NC[C@H](O)[C@@H](O)[C@H](O)[C@H](O)CO)S(=O)(=O)c1ccc(Cl)c(COC2(c3cnccc3-c3ccccc3OC3CC3)CC2)c1 [Compound I-762, 4-chloro-3-((1-(4-(2-cyclopropoxyphenyl)pyridin-3-yl)cyclopropoxy)methyl)-N-isobutyl-N-(4-(3-((2S,3R,4R,5R)-2,3,4,5,6-pentahydroxyhexyl)ureido)butyl)benzenesulfonamide]"
10,< 100 nM,"CC(C)N(CCCCNC(=O)N[C@@H](CO)[C@@H](O)[C@H](O)[C@H](O)CO)S(=O)(=O)c1cc(COC2(c3cnccc3-c3ccccc3OC3CC3)CC2)c(Cl)cc1F [Compound I-763, 4-chloro-5-((1-(4-(2-cyclopropoxyphenyl)pyridin-3-yl)cyclopropoxy)methyl)-2-fluoro-N-isopropyl-N-(4-(3-((2S,3R,4S,5R)-1,3,4,5,6-pentahydroxyhexan-2-yl)ureido)butyl) benzenesulfonamide]"
11,< 100 nM,"CC(C)N(CCCCNC(=O)NC[C@H](O)[C@@H](O)[C@H](O)[C@H](O)CO)S(=O)(=O)c1cc(COC2(c3cnccc3-c3ccccc3OC3CC3)CC2)c(Cl)cc1F [Compound I-764, 4-chloro-5-((1-(4-(2-cyclopropoxyphenyl)pyridin-3-yl)cyclopropoxy)methyl)-2-fluoro-N-isopropyl-N-(4-(3-((2S,3R,4R,5R)-2,3,4,5,6-pentahydroxyhexyl)ureido)butyl) benzenesulfonamide]"
12,< 100 nM,"COc1cccc(Cl)c1-c1ccncc1C1(OCc2cc(Cl)ccc2Cl)CC1 [Compound I-765, 4-(2-chloro-6-methoxyphenyl)-3-(1-((2,5-dichlorobenzyl)oxy)cyclopropyl)pyridine]"
13,< 100 nM,"CC(=O)NCCCCN(C)S(=O)(=O)c1ccc(Cl)c(COC2(c3cnccc3-c3ccccc3OC3CC3)CC2)c1 [Compound I-766, N-(4-((4-chloro-3-((1-(4-(2-cyclopropoxyphenyl)pyridin-3-yl)cyclopropoxy)methyl)-N-methylphenyl)sulfonamido)butyl)acetamide]"
14,126 to 1000 nM,"CN(CCCCNC(=O)NCCCCN(C)S(=O)(=O)c1ccc(Cl)c(COC2(c3cnccc3-c3ccccc3OC3CC3)CC2)c1)S(=O)(=O)c1ccc(Cl)c(COC2(c3cnccc3-c3ccccc3OC3CC3)CC2)c1 [Compound I-767, N,N′-((carbonylbis(azanediyl))bis(butane-4,1-diyl))bis(4-chloro-3-((1-(4-(2-cyclopropoxyphenyl)pyridin-3-yl)cyclopropoxy)methyl)-N-methylbenzenesulfonamide)]"
15,126 to 1000 nM,"Clc1ccc(Cl)c(COC2(c3cnccc3-c3ccccc3Cl)CC2)c1 [Compound I-768, 4-(2-chlorophenyl)-3-(1-((2,5-dichlorobenzyl)oxy)cyclopropyl)pyridine]"
16,126 to 1000 nM,"CN1CCCN(S(=O)(=O)c2ccc(Cl)c(COC3(c4cnccc4-c4ccccc4OC4CC4)CC3)c2)CC1 [Compound I-769, 1-((4-chloro-3-((1-(4-(2-cyclopropoxyphenyl)pyridin-3-yl)cyclopropoxy)methyl)phenyl)sulfonyl)-4-methyl-1,4-diazepane]"
17,< 100 nM,"O=S(=O)(Nc1nccs1)c1ccc(Cl)c(COC2(c3cnccc3-c3ccccc3OC3CC3)CC2)c1 [Compound I-770, 4-chloro-3-((1-(4-(2-cyclopropoxyphenyl)pyridin-3-yl)cyclopropoxy)methyl)-N-(thiazol-2-yl)benzenesulfonamide]"
18,< 100 nM,"O=S(=O)(Nc1ccccc1)c1ccc(Cl)c(COC2(c3cnccc3-c3ccccc3OC3CC3)CC2)c1 [Compound I-771, 4-chloro-3-((1-(4-(2-cyclopropoxyphenyl)pyridin-3-yl)cyclopropoxy)methyl)-N-phenylbenzenesulfonamide]"
